# Columns and labels:
# EGFR mutant T790M = biological target: T1, EGFR mutant T790M (Homo sapiens, UniProt P00533, T790M); test: Kinase inhibition assay, EGFR mutant T790M; conditions: biochemical potency;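 note: truncated human EGFR mutant enzyme preincubated two hours with compound, then ATP plus ULight-PolyGT peptide for one hour, Europium-labeled antibody LANCE detection, IC50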
# T1 construct: truncated human JAK3, EGFR mutants such as del E746-A750; purchased Carna Biosciences
# [1] = system: H1975 (EGFR L858R/T790M mutant); test: Cell viability assay, H1975; format: cell-based; conditions: for IC50: Homo sapiens, NCI-H1975, cellular potency, 72-hour incubation, ATPLite, read-out: EGFR Mutants H1975; for Selectivity over wildtype, Wildtype vs mutant H2073/H1975 (fold): cellular potency ratio;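 for all read-outs here: NSCLC cells whose survival relies on EGFR L858R/T790M, exposed 72 h to serially diluted compound, ATP-based viability readout, with the H2073 line (wildtype EGFR dependent) as wildtype comparator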
# H2073 (EGFR wildtype) = test: Cell viability assay, H2073; format: cell-based; conditions: NCI-H2073; cellular potency; 72-hour incubation; ATPLite;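 note: NSCLC cell line whose survival relies on wildtype EGFR, treated with serially diluted compound, cytotoxic effect judged from remaining cell viability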
# [2] = system: PC9 (EGFR del E746-A750 mutant); test: Cell viability assay, PC9; format: cell-based; conditions: for Selectivity over wildtype, Wildtype vs mutant H2073/PC9 (fold): cellular potency ratio; for IC50: cellular potency, 72-hour incubation, ATPLite, read-out: EGFR Mutants PC9;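 for all read-outs here: NSCLC PC9 cells, whose viability relies on EGFR del E746-A750, exposed to serially diluted compound for 72 h at 37 °C, ATPLite read-out, IC50, H2073 as EGFR wildtype line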
# EGFR mutant L858R/T790M = biological target: T2, EGFR mutant L858R/T790M (Homo sapiens, UniProt P00533, L858R/T790M); test: Kinase inhibition assay, EGFR L858R/T790M; format: biochemical; conditions: read-out: EGFR mutants L858R/T790M;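 note: truncated human enzyme preincubated two hours with compound, then one hour with one millimolar ATP and ULight-PolyGT peptide, Europium-labeled antibody detection, IC50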
# T2 construct: truncated human JAK3, EGFR mutants such as del E746-A750; purchased Carna Biosciences
# SYK = biological target: T3, SYK (Homo sapiens, UniProt P43405); test: Kinase inhibition assay, SYK; format: biochemical; conditions: biochemical potency;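 note: purified full-length human SYK pre-incubated 30 min with compound, then ULight-TK peptide phosphorylation for 1 h, detected with Europium-labeled antibody in Lance buffer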
# T3 construct: Purified human, full-length SYK, KDR; purchased Carna Biosciences
# EGFR mutant Del19/T790M = biological target: T4, EGFR mutant Del19/T790M (Homo sapiens, UniProt P00533, DEL746-750/T790M); test: Kinase inhibition assay, EGFR del E746-A750/T790M; format: biochemical; conditions: read-out: EGFR mutants Del19/T790M
# T4 construct: truncated human JAK3, EGFR mutants such as del E746-A750; purchased Carna Biosciences
# EGFR mutant L858R = biological target: T5, EGFR mutant L858R (Homo sapiens, UniProt P00533, L858R); test: Kinase inhibition assay, EGFR L858R; format: biochemical; conditions: read-out: EGFR mutants L858R;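 note: truncated human EGFR L858R kinase with compound preincubation, ULight-PolyGT peptide phosphorylation read by Europium-antibody Lance detection, IC50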
# T5 construct: truncated human JAK3, EGFR mutants such as del E746-A750; purchased Carna Biosciences
# [3] = biological target: T6, EGFR mutant Del19 (E746-A750) (Homo sapiens, UniProt P00533, DEL746-750); test: Kinase inhibition assay, EGFR del E746-A750; format: biochemical; conditions: read-out: EGFR mutants Del19 (E746-A750);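 note: truncated human EGFR mutant kinase, two-hour preincubation with compound, then one-hour reaction with ATP and ULight-PolyGT peptide, LANCE Europium-antibody phosphorylation readout, IC50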
# T6 construct: truncated human JAK3, EGFR mutants such as del E746-A750; purchased Carna Biosciences
# T6 sequence (P00533 with tags, fused parts or gaps DEL746-750 limits assumed): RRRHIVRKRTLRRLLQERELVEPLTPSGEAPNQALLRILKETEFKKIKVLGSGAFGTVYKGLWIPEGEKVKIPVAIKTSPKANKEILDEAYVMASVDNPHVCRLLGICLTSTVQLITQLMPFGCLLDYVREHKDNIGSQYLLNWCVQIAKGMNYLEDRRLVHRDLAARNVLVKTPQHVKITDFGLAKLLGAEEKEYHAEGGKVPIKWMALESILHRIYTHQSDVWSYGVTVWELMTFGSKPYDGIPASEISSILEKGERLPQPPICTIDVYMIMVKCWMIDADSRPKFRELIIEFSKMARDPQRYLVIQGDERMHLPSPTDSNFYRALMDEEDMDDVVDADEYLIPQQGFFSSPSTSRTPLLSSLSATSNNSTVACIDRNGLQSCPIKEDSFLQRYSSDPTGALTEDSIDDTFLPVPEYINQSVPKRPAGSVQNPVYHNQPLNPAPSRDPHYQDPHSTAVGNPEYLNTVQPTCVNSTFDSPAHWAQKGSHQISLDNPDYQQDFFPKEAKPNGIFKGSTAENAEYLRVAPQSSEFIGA
# T1 sequence (P00533 669-1210 T790M limits assumed): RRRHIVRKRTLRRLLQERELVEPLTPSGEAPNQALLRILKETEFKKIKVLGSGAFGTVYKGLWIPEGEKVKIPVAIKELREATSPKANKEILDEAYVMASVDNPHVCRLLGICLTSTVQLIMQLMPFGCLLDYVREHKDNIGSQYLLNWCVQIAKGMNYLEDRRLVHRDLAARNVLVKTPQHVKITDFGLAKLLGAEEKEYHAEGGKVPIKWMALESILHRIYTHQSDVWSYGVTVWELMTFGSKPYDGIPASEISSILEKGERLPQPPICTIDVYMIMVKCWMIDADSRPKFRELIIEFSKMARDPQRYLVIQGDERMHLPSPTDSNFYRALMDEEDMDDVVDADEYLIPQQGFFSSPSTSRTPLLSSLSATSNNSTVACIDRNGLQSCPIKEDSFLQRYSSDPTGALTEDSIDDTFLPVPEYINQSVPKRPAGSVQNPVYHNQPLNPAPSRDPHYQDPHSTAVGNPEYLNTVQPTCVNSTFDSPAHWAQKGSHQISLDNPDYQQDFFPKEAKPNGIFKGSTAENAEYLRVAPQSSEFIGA
# T5 sequence (P00533 669-1210 L858R limits assumed): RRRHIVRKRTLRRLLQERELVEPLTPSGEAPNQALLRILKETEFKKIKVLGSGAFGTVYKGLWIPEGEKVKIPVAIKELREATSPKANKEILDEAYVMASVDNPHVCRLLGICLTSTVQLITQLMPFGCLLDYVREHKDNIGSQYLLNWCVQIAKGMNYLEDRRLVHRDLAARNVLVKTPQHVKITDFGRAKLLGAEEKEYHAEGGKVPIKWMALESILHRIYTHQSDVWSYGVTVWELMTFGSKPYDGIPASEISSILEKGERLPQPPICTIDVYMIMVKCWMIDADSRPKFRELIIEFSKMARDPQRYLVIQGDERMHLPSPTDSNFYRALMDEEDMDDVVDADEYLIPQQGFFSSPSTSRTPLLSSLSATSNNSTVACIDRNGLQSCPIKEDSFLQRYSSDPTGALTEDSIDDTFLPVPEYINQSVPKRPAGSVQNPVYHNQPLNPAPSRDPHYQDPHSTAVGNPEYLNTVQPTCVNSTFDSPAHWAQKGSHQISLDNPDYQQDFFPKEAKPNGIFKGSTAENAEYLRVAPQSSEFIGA
# T4 sequence (P00533 with tags, fused parts or gaps DEL746-750/T790M limits assumed): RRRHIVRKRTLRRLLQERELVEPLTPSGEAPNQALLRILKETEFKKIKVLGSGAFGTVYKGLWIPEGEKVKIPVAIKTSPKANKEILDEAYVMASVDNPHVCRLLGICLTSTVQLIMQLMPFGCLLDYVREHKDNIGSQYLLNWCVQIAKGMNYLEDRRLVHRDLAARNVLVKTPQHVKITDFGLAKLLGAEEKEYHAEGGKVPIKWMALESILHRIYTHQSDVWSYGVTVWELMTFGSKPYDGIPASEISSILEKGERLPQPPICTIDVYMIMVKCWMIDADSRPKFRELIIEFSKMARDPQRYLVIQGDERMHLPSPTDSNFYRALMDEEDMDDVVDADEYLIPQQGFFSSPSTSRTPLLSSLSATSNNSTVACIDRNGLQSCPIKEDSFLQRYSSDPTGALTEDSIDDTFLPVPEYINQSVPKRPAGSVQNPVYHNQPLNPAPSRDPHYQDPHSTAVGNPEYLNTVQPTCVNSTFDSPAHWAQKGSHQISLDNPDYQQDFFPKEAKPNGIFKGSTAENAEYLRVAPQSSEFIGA
# T2 sequence (P00533 669-1210 T790M/L858R limits assumed): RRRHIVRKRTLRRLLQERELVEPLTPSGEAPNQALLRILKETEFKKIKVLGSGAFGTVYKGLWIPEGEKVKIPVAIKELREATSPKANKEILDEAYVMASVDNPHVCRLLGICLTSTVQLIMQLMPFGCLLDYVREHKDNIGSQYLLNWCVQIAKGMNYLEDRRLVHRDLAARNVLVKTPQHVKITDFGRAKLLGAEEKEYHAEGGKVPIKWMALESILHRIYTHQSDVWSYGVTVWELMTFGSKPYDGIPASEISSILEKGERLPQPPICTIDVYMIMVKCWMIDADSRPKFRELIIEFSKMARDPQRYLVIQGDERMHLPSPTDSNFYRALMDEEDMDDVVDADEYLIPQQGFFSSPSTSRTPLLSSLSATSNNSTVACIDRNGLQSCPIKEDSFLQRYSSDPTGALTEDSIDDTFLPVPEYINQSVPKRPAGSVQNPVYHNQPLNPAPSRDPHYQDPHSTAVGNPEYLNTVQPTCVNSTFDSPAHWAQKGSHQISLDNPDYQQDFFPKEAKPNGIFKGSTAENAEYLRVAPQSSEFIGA
Compound,IC50 (EGFR mutant T790M) [nM],IC50 [1] [nM],IC50 (H2073 (EGFR wildtype)) [nM],IC50 [2] [nM],IC50 (EGFR mutant L858R/T790M) [nM],IC50 (SYK) [nM],IC50 (EGFR mutant Del19/T790M) [nM],IC50 (EGFR mutant L858R) [nM],IC50 [3] [nM],"Selectivity over wildtype, Wildtype vs mutant H2073/H1975 (fold) [1]","Selectivity over wildtype, Wildtype vs mutant H2073/PC9 (fold) [2]"
"C=CC(=O)Nc1cc(Nc2nccc(-n3cc(CN(C)C)c(C(C)(C)C)n3)n2)c(OC)cc1N(C)CCOC [Compound 100, N-(5-(4-(3-tert-butyl-4-((dimethylamino)methyl)-1H-pyrazol-1-yl)pyrimidin-2-ylamino)-4-methoxy-2-((2-methoxyethyl)(methyl)amino)phenyl)acrylamide]",20 to 200,20 to 200,> 1000,20 to 200,< 20,> 1000,< 20,< 20,< 20,101-200 fold,101-200 fold
"C=CC(=O)Nc1cc(Nc2nccc(-n3cc(CN4CCC4)c(-c4cccs4)n3)n2)c(OC)cc1N1CCOCC1 [Compound 118, N-(5-(4-(4-(azetidin-1-ylmethyl)-3-(thiophen-2-yl)-1H-pyrazol-1-yl)pyrimidin-2-ylamino)-4-methoxy-2-morpholinophenyl)acrylamide]",< 20,< 20,201 to 1000,< 20,< 20,20 to 200,< 20,< 20,< 20,20-200 fold,20-200 fold
"Cc1cc(C)cc(Nc2nccc(-n3cc(CN4CC(O)C4)c(C)n3)n2)c1 [Compound 147, 1-((1-(2-(3,5-dimethylphenylamino)pyrimidin-4-yl)-3-methyl-1H-pyrazol-4-yl)methyl)azetidin-3-ol, reference compound]",> 1000,> 1000,> 1000,> 1000,201 to 1000,20 to 200,> 1000,> 1000,> 1000,<20 fold,<20 fold
"Cc1cc(Nc2nccc(-n3cc(CN4CC[C@@H](O)C4)c(C)n3)n2)cc(C)c1OCCN1CCCC1 [Compound 148, (R)-1-((1-(2-(3,5-dimethyl-4-(2-(pyrrolidin-1-yl)ethoxy)phenylamino)pyrimidin-4-yl)-3-methyl-1H-pyrazol-4-yl)methyl)pyrrolidin-3-ol, reference compound]",> 1000,> 1000,> 1000,> 1000,201 to 1000,201 to 1000,201 to 1000,> 1000,> 1000,<20 fold,<20 fold

# The next lines start with results.
IC50 (EGFR mutant T790M) [nM],IC50 [1] [nM],IC50 (H2073 (EGFR wildtype)) [nM],IC50 [2] [nM],IC50 (EGFR mutant L858R/T790M) [nM],IC50 (SYK) [nM],IC50 (EGFR mutant Del19/T790M) [nM],IC50 (EGFR mutant L858R) [nM],IC50 [3] [nM],Compound,"Selectivity over wildtype, Wildtype vs mutant H2073/H1975 (fold) [1]","Selectivity over wildtype, Wildtype vs mutant H2073/PC9 (fold) [2]"
< 20,< 20,201 to 1000,< 20,< 20,> 1000,< 20,< 20,< 20,"C=CC(=O)Nc1cc(Nc2nccc(-n3cc(CN(C)C)c(C(C)C)n3)n2)c(OC)cc1N1CCOCC1 [Compound 93, N-(5-(4-(4-((dimethylamino)methyl)-3-isopropyl-1H-pyrazol-1-yl)pyrimidin-2-ylamino)-4-methoxy-2-morpholinophenyl)acrylamide]",20-200 fold,20-200 fold
< 20,20 to 200,> 1000,20 to 200,< 20,20 to 200,< 20,< 20,< 20,"C=CC(=O)Nc1cc(Nc2nccc(-n3cc(CN(C)C)c(C4CC4)n3)n2)c(OC)cc1N(C)CCOC [Compound 106, N-(5-(4-(3-cyclopropyl-4-((dimethylamino)methyl)-1H-pyrazol-1-yl)pyrimidin-2-ylamino)-4-methoxy-2-((2-methoxyethyl)(methyl)amino)phenyl)acrylamide]",101-200 fold,101-200 fold
